According to publication PMC7887804 (Chemical Research in Toxicology, 2020):
Read-outs that look alike come from different tables or passages of the source. Marks after values point to notes of the source that are not given here.

Legend:
[1] = cited from earlier work
[2] = cited from earlier work; for pKa: A, acid, ref Tsao [40]; for logP: octanol/water, ref PubChem
[3] = positive hit calls, ToxCast summary data; cited from earlier work
[4] = In vitro metabolism study; assay type: in vitro ADME, rat; settings: for CLint,u: rat (R), CLintapp corrected for the fraction unbound in the incubation; for CLintapp (apparent in vitro intrinsic clearance): rat liver S9 (R), 1 μM substrate
[5] = test system: human thyroid peroxidase (TPO); settings: ToxCast, cited from earlier work; for activity in the TPO assay: NCCT_TPO_AUR_dn
[6] = In vitro metabolism study; assay type: in vitro ADME, human; settings: for conversion in incubations with and without the cofactor mix: RLS9 and HLS9, data not shown; for measured concentration at t = 0 lower than the added 1 μM: S9 incubation tubes, suggests binding to the plastic walls; for CLint,u: human (H), CLintapp corrected for the fraction unbound in the incubation; for CLintapp (apparent in vitro intrinsic clearance): human liver S9 (H), 1 μM substrate
thyroid peroxidase (TPO) [7] = experiment: QIVIVE oral equivalent dose related to TPO inhibition; set-up: species or system human; settings: humans; for oral equivalent dose related to TPO inhibition: Cmax equal to AC50 in NCCT_TPO_AUR_dn; for margin between human exposure and oral equivalent dose related to TPO inhibition: highest exposure estimates
[8] = rats, 100 mg/kg bw [14C]-labelled, parent compound in plasma up to 24 h; cited from earlier work
[9] = developmental toxicity study; cited from earlier work
[10] = 90 day toxicity study, mainly effects on hematological parameters; cited from earlier work
thyroid peroxidase (TPO) [11] = experiment: QIVIVE oral equivalent dose related to TPO inhibition; set-up: species or system rat; settings: rats, Cmax equal to AC50 in NCCT_TPO_AUR_dn
[12] = cited from earlier work; remark: listed apart in the source
[13] = rats ♂, 17.5 mg/kg bw, mean (min–max)
[14] = rats ♀ and ♂, 14 mg/kg bw, mean
[15] = rats ♀ and ♂, 135 mg/kg bw, mean
[16] = rats ♀, 14 mg/kg bw, mean (min–max)
[17] = rats ♀, 135 mg/kg bw, mean (min–max)
[18] = rats ♂, 14 mg/kg bw, mean (min–max)
[19] = rats ♂, 135 mg/kg bw, mean (min–max)
[20] = humans ♀ and ♂, 1.4 mg/kg bw, mean
[21] = humans ♀ and ♂, 14 mg/kg bw, mean
[22] = humans ♀, 1.4 mg/kg bw, mean (min–max)
[23] = humans ♀, 14 mg/kg bw, mean (min–max)
[24] = humans ♂, 1.4 mg/kg bw, mean (min–max)
[25] = humans ♂, 14 mg/kg bw, mean (min–max)

CCCCCCCCCCCCOC(=O)c1cc(O)c(O)c(O)c1 [dodecyl gallate]
reported in vivo Cmax ([1]; rats, 10 mg/kg bw oral, blood collected only 10 min after dosing): no detectable plasma concentrations
pKa [2]: 7.93 (A)
logP [2]: 6.37
number of ToxCast assays in which the compound is active out of assays tested [3]: 210 out of 441
CLint,u [4]: 11 600 μL/min/mg of S9 protein
CLintapp (apparent in vitro intrinsic clearance) [4]: 232 μL/min/mg of S9 protein
activity in the TPO assay [5]: active
conversion in incubations with and without the cofactor mix [6]: to some extent
measured concentration at t = 0 lower than the added 1 μM [6]: up to 2 fold
CLint,u [6]: 8800 μL/min/mg of S9 protein
CLintapp (apparent in vitro intrinsic clearance) [6]: 88 μL/min/mg of S9 protein
oral equivalent dose related to TPO inhibition (thyroid peroxidase (TPO) [7]): 69 mg/kg bw
margin between human exposure and oral equivalent dose related to TPO inhibition (thyroid peroxidase (TPO) [7]): ≥ 122 fold

COC(=O)c1ccc(O)cc1 [methylparaben]
reported in vivo Cmax [8]: No parent compound was detected
number of ToxCast assays in which the compound is active out of assays tested [3]: 24 out of 886
CLint,u [4]: 642 μL/min/mg of S9 protein
CLintapp (apparent in vitro intrinsic clearance) [4]: 629 μL/min/mg of S9 protein
faster conversion (CLint) by RLS9 compared with HLS9 ([4]; rat vs human liver S9): 6 fold
conversion in incubations with and without the cofactor mix [6]: occurs both in the presence and absence of the cofactor mix
CLint,u [6]: 121 μL/min/mg of S9 protein
CLintapp (apparent in vitro intrinsic clearance) [6]: 102 μL/min/mg of S9 protein

CCCCCCCCOC(=O)c1cc(O)c(O)c(O)c1 [octyl gallate]
reported in vivo Cmax ([1]; rats ♀, 17.5 mg/kg bw, mean): ♀ 20 (range NR)^a ng/mL
reported in vivo AUC [1, 13]: ♂ 3.7 (1.4–7.8) n = 6 ng*hr/mL
reported in vivo Cmax [1, 13]: ♂ 19 (9–41) n = 6 ng/mL
pKa [2]: 7.94 (A)
logP [2]: 4.33
number of ToxCast assays in which the compound is active out of assays tested [3]: 355 out of 982
CLint,u [4]: 4695 μL/min/mg of S9 protein
CLintapp (apparent in vitro intrinsic clearance) [4]: 3662 μL/min/mg of S9 protein
activity in the TPO assay [5]: active
conversion in incubations with and without the cofactor mix [6]: to some extent
measured concentration at t = 0 lower than the added 1 μM [6]: up to 2 fold
CLint,u [6]: 3999 μL/min/mg of S9 protein
CLintapp (apparent in vitro intrinsic clearance) [6]: 3119 μL/min/mg of S9 protein
oral equivalent dose related to TPO inhibition (thyroid peroxidase (TPO) [7]): 99 mg/kg bw
margin between human exposure and oral equivalent dose related to TPO inhibition (thyroid peroxidase (TPO) [7]): at least 106 fold

CCCOC(=O)c1cc(O)c(O)c(O)c1 [propyl gallate]
NOAEL [9]: 300 mg/kg bw/day
NOAEL [10]: 150 mg/kg bw/day
reported in vivo AUC [1, 14]: ♀ and ♂ 95 n = 12 ng*hr/mL
reported in vivo Cmax [1, 14]: ♀ and ♂ 192 n = 12 ng/mL
reported in vivo AUC [1, 15]: ♀ and ♂ 1624 n = 16 ng*hr/mL
reported in vivo Cmax [1, 15]: ♀ and ♂ 4753 n = 16 ng/mL
reported in vivo AUC [1, 16]: ♀ 66 (39–100) n = 6 ng*hr/mL
reported in vivo Cmax [1, 16]: ♀ 238 (68–462) n = 6 ng/mL
reported in vivo AUC [1, 17]: ♀ 1164 (321–3451) n = 8 ng*hr/mL
reported in vivo Cmax [1, 17]: ♀ 4246 (884–12 825) n = 8 ng/mL
reported in vivo AUC [1, 18]: ♂ 123 (62–217) n = 6 ng*hr/mL
reported in vivo Cmax [1, 18]: ♂ 145 (67–334) n = 6 ng/mL
reported in vivo AUC [1, 19]: ♂ 2085 (660–4119) n = 8 ng*hr/mL
reported in vivo Cmax [1, 19]: ♂ 5260 (1635–11085) n = 8 ng/mL
oral equivalent dose related to TPO inhibition (thyroid peroxidase (TPO) [11]): 7.9 mg/kg bw
reported in vivo AUC [12, 20]: ♀ and ♂ 21 n = 11 ng*hr/mL
reported in vivo Cmax [12, 20]: ♀ and ♂ 13 n = 11 ng/mL
reported in vivo AUC [12, 21]: ♀ and ♂ 346 n = 10 ng*hr/mL
reported in vivo Cmax [12, 21]: ♀ and ♂ 152 n = 10 ng/mL
reported in vivo AUC [12, 22]: ♀ 19 (13-21) n = 4 ng*hr/mL
reported in vivo Cmax [12, 22]: ♀ 12 (11–14) n = 4 ng/mL
reported in vivo AUC [12, 23]: ♀ 290 (25–425) n = 5 ng*hr/mL
reported in vivo Cmax [12, 23]: ♀ 150 (10–240) n = 5 ng/mL
reported in vivo AUC [12, 24]: ♂ 21 (9.4–42) n = 7 ng*hr/mL
reported in vivo Cmax [12, 24]: ♂ 14 (4–33) n = 7 ng/mL
reported in vivo AUC [12, 25]: ♂ 402 (290–587) n = 5 ng*hr/mL
reported in vivo Cmax [12, 25]: ♂ 155 (84–208) n = 5 ng/mL
logP [2]: 1.87
number of ToxCast assays in which the compound is active out of assays tested [3]: 131 out of 888
CLint,u [4]: 835 μL/min/mg of S9 protein
CLintapp (apparent in vitro intrinsic clearance) [4]: 818 μL/min/mg of S9 protein
AC50 ([5]; read-out: AC50 in the NCCT_TPO_AUR_dn assay, TPO inhibition): 0.58 µM
CLint,u [6]: 437 μL/min/mg of S9 protein
CLintapp (apparent in vitro intrinsic clearance) [6]: 428 μL/min/mg of S9 protein
oral equivalent dose related to TPO inhibition (thyroid peroxidase (TPO) [7]): 6.3 mg/kg bw
